The numbers were not newly measured in article PMC8124228, “New Hybrids Based on Curcumin and Resveratrol: Synthesis, Cytotoxicity and Antiproliferative Activity against Colorectal Cancer Cells” (Molecules, 2021), which cites them from elsewhere.

≈ marks a conversion by molar mass, not a printed value.

The subject of data set [1] is tubulin polymerization. Also on record: method as in PMID 26515041. Conditions: evaluated in HCT-116 cells; cited from earlier work.
Data set [2] deals with SW480 cells. Also on record: method as in doi:10.1007/s00044-018-2202-0. Conditions: SW480, 48 h; cited from earlier work.
Data set [3] concerns B16-F10 cell line. The following applies: cited from earlier work.
Data set [4] deals with HepG2 cell line. Conditions: cited from earlier work.
Data set [5] has as its system tubulin polymerization. The following applies: cited from earlier work.
Data set [6] has as its system A549 cell line. Conditions: cited from earlier work.
Data set [7] has as its system SiHa human cancer cells. Also on record: method as in doi:10.1007/s00044-016-1514-1. The following applies: cited from earlier work.
For data set [8], the system named is MDA-MB-231 human cancer cells. Also on record: method as in doi:10.1007/s00044-016-1514-1. The following applies: cited from earlier work.
Data set [9] concerns PANC-1 human cancer cells. Also on record: method as in doi:10.1007/s00044-016-1514-1. The following applies: cited from earlier work.

On to `COc1cc(/C=C/C(=O)/C=C/c2cc(OC)c(OC)c(OC)c2)ccc1CCc1cn(CCN2C(=O)C(=O)c3ccccc32)nn1`, for which the “inhibition of tubulin polymerization at (concentration)” value in data set [1] is 1.2 µM.

As to `COc1cc(/C=C/c2ccc3ccc(=O)oc3c2)cc(OC)c1O` [Figure 1H], the half-maximal inhibitory concentration (IC50) in data set [2] was 1010 nM.

Turning to `COc1ccc(/C=C/c2cc(OC)cc(OC)c2/C=C/C(=O)c2ccc(C)c(C)c2)cc1` [Figure 1I], the half-inhibitory concentration (IC50) in data set [3] is listed as 0.1 µg/mL (≈ 0.233 µM); in data set [4], 0.2 µg/mL (≈ 0.467 µM); in [6] it was 1.4 µg/mL (≈ 3.27 µM). Also, in data set [5], the “tubulin polymerization inhibitory activity at (concentration)” value was 2.6 µg/mL.

With `COc1cc(/C=C/c2ccc(NC(=O)CSc3nnc(-c4cccc(C(F)(F)F)c4)o3)cc2)cc(OC)c1` [Resveratrol–oxadiazole hybrid F], the concentration for 50% growth inhibition (GI50) in data set [7], in [8] and in data set [9] was below 100 nM in each case.
